Assay results as given in patent US20050282743A1, “Molecular interactions in cells” (Arbor Vita Corporation, priority 2001, published 2005).
Peptide text beside a SMILES is read from it. * marks the point of attachment. Biotin = O=C1N[C@H]2[C@H](CS[C@H]2CCCCC(=O)*)N1

Columns and labels:
Test in all cases: G' assay (10 uM PL peptide), results of TABLE 7 and TABLE 12
Assay type in all cases: binding
[1] = biological target: T1, PDZ protein (GST-PDZ fusion) (Homo sapiens, UniProt P29475); conditions: PDZ NOS1, PDZ Domain 1
T1 construct: made in house; host or cells: E. coli (DH5alpha, BL21 or JM109)
How it was run: (§1)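 Same steps as the G-zero format, apart from a peptide concentration of 10 uM in place of 20 uM in step 2. Amino-terminally biotinylated PL peptides bind GST-PDZ fusions, and retained peptide is quantified by 450 nm absorbance.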

[2] = biological target: T2, PDZ protein (GST-PDZ fusion) (Homo sapiens, UniProt Q07157); conditions: PDZ ZO-1, PDZ Domain 1
T2 construct: made in house; host or cells: E. coli (DH5alpha, BL21 or JM109)
How it was run: as §1

[3] = biological target: T3, PDZ protein (GST-PDZ fusion) (Homo sapiens, UniProt Q9HD26); conditions: PDZ PIST, PDZ Domain 1
T3 construct: made in house; host or cells: E. coli (DH5alpha, BL21 or JM109)
How it was run: as §1

[4] = biological target: T4, PDZ protein (GST-PDZ fusion) (Homo sapiens, UniProt Q9UDY2); conditions: PDZ ZO-2, PDZ Domain 1
T4 construct: made in house; host or cells: E. coli (DH5alpha, BL21 or JM109)
T4 sequence (Q9UDY2 1-1190): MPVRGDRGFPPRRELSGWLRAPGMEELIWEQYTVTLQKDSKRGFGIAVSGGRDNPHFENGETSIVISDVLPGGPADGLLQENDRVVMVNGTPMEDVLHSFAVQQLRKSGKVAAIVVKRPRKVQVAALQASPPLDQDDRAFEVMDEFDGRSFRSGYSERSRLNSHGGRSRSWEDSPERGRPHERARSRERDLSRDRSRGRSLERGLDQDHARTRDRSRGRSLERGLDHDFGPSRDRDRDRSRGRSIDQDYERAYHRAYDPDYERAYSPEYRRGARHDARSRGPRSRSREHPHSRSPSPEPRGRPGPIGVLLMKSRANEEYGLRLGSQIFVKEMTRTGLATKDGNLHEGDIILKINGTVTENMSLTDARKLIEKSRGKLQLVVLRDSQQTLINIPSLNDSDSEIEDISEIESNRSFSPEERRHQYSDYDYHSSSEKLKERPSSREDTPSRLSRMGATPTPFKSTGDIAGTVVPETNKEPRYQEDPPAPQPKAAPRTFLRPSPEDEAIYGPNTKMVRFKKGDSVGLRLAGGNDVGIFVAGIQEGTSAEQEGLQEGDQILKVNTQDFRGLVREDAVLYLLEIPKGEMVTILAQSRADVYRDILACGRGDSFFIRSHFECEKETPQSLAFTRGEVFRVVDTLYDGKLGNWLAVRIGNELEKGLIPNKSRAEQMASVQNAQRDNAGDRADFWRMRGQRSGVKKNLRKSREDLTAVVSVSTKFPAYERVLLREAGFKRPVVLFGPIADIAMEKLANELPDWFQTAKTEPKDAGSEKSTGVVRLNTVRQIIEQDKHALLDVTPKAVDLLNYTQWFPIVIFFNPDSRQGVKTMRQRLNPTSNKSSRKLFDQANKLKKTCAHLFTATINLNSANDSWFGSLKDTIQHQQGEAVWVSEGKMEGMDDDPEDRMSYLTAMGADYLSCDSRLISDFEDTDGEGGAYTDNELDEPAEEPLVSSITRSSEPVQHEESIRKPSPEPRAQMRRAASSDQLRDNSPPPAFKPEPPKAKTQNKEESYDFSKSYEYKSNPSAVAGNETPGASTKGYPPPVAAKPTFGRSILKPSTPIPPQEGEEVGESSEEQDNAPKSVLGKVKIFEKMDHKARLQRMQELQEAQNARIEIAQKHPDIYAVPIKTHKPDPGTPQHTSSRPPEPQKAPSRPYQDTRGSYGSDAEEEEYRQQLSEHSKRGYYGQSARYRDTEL
How it was run: as §1

T2 sequence (Q07157 whole entry, the tested form may be a part): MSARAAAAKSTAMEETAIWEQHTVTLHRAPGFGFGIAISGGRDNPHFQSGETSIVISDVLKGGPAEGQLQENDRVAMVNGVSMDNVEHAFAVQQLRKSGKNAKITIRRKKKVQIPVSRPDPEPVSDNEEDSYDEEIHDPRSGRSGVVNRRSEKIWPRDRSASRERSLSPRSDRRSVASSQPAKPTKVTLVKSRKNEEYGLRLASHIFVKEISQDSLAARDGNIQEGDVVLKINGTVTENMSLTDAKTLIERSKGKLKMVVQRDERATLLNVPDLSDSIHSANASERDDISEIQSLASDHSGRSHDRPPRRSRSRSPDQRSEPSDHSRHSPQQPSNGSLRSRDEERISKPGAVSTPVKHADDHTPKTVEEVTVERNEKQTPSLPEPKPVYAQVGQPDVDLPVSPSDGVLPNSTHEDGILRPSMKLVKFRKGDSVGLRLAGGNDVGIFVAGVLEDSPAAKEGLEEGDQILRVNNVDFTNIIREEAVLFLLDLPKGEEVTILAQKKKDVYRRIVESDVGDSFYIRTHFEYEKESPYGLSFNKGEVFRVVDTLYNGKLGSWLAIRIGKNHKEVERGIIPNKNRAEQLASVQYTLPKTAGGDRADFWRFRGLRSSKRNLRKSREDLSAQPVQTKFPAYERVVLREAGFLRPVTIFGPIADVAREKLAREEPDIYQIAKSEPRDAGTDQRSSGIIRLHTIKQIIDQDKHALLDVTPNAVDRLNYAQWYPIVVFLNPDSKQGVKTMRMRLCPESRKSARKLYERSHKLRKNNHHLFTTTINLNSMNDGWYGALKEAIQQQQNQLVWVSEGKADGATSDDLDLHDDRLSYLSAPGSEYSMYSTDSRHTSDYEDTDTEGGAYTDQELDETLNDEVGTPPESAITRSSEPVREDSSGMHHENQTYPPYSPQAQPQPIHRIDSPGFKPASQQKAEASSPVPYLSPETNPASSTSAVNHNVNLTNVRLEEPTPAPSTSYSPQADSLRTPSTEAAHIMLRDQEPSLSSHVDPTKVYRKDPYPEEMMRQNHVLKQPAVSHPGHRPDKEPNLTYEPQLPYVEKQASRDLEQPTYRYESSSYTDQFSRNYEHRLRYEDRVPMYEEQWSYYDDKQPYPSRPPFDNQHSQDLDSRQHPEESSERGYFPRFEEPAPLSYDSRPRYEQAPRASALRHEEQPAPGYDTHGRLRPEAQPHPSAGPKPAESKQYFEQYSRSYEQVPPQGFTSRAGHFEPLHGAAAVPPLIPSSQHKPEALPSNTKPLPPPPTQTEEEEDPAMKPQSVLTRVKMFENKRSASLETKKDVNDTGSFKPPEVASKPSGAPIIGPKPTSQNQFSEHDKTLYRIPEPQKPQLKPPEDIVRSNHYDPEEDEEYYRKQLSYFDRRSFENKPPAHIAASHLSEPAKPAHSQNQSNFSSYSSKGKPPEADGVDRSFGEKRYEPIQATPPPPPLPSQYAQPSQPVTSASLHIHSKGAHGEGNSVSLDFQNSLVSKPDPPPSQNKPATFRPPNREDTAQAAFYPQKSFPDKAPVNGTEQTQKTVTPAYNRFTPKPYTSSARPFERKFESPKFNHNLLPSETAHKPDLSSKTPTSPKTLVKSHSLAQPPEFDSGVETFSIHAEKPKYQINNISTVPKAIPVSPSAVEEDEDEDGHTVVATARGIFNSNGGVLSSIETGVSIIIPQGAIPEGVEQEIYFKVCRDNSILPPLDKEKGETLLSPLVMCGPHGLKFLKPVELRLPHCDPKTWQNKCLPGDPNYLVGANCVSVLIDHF
T1 sequence (P29475 whole entry, the tested form may be a part): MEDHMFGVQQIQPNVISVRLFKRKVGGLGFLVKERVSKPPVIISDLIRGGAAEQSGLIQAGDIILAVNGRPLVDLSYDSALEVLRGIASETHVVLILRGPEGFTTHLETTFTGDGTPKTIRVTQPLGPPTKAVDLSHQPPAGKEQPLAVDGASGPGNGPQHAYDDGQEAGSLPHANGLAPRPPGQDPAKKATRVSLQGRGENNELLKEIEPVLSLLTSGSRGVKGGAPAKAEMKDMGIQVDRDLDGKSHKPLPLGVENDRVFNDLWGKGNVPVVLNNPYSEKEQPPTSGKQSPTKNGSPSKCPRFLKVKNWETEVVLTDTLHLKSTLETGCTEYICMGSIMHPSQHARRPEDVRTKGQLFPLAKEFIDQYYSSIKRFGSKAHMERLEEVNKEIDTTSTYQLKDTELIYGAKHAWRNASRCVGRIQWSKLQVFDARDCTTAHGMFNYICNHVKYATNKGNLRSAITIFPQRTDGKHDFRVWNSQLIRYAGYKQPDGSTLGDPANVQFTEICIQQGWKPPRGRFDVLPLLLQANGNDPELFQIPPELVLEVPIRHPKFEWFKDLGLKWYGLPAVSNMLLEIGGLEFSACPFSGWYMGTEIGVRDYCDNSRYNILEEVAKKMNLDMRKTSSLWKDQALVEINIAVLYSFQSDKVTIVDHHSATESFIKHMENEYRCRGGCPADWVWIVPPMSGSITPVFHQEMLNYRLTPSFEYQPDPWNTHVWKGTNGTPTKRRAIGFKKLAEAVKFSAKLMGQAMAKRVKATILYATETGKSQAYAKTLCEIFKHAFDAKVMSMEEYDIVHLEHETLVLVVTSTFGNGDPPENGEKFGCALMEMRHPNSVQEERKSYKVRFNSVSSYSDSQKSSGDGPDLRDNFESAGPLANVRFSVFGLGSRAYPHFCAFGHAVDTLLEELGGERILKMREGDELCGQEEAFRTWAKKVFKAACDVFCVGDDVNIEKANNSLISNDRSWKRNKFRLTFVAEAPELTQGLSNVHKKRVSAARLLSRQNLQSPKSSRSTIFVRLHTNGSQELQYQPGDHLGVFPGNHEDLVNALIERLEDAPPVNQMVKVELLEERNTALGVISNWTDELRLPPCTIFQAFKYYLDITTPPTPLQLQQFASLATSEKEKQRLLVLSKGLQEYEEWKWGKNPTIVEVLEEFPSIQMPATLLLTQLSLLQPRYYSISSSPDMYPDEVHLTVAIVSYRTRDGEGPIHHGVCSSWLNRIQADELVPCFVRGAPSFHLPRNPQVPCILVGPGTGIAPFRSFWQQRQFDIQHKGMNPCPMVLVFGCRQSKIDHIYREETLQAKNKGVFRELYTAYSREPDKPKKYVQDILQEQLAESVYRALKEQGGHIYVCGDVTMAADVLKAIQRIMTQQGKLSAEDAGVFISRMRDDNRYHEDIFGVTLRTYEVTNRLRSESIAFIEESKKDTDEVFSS

| Structure (SMILES) | Classification [1] | Classification [2] | Classification [3] | Classification [4] | Classification ([1]; PL peptide 10 uM) | Classification ([2]; PL peptide 10 uM) | Classification ([3]; PL peptide 10 uM) | Classification ([4]; PL peptide 10 uM) |
| --- | --- | --- | --- | --- | --- | --- | --- | --- |
| CC[C@H](C)[C@H](NC(=O)[C@H](CC(=O)O)NC(=O)[C@H](CCC(=O)O)NC(=O)[C@H](CCCNC(=N)N)NC(=O)[C@@H](NC(=O)CCCC[C@@H]1SC[C@@H]2NC(=O)N[C@@H]21)[C@@H](C)O)C(=O)N[C@@H](Cc1ccc(O)cc1)C(=O)N[C@H](C(=O)N[C@@H](CC(N)=O)C(=O)N[C@@H](Cc1ccc(O)cc1)C(=O)N1CCC[C@H]1C(=O)N[C@H](C(=O)N[C@@H](Cc1ccccc1)C(=O)N[C@@H](CO)C(=O)N[C@@H](CCCNC(=N)N)C(=O)N[C@@H](CCCNC(=N)N)C(=O)N1CCC[C@H]1C(=O)N[C@@H](CCCCN)C(=O)N[C@H](C(=O)N[C@@H](CCCNC(=N)N)C(=O)N[C@H](C(=O)O)C(C)C)[C@@H](C)O)[C@@H](C)O)C(C)C [DNAM-1] (Biotin-TREDIYVNYPTFSRRPKTRV-OH; C-terminus assumed) | 1 (A450 nm 0-1) | 2 (A450 nm 1-2) | 4 (A450 nm 3-4) | 3 (A450 nm 2-3) |  |  |  |  |
| CC[C@H](C)[C@H](NC(=O)[C@H](CCCCN)NC(=O)[C@@H](NC(=O)[C@H](CO)NC(=O)[C@@H]1CCCN1C(=O)[C@H](Cc1ccccc1)NC(=O)[C@@H](NC(=O)[C@@H](NC(=O)[C@H](CCCNC(=N)N)NC(=O)[C@H](CCC(=O)O)NC(=O)[C@H](CC(C)C)NC(=O)[C@H](CC(C)C)NC(=O)[C@H](CC(C)C)NC(=O)[C@@H](NC(=O)CNC(=O)[C@@H](NC(=O)CCCC[C@@H]1SC[C@@H]2NC(=O)N[C@@H]21)C(C)C)[C@@H](C)O)C(C)C)[C@@H](C)CC)C(C)C)C(=O)N[C@@H](C)C(=O)N[C@H](C(=O)N[C@@H](CC(C)C)C(=O)N[C@H](C(=O)O)C(C)C)[C@@H](C)O [Adenovirus E4 Type9] |  |  |  |  | 5 (A450 nm of 4 more than 2× repeated) | 2 (A450 nm 1-2) | 1 (A450 nm 0-1) | 3 (A450 nm 2-3) |
| CSCC[C@H](NC(=O)[C@H](C)NC(=O)[C@H](CCCNC(=N)N)NC(=O)CNC(=O)[C@@H](NC(=O)[C@H](Cc1c[nH]c2ccccc12)NC(=O)[C@H](CCCNC(=N)N)NC(=O)CNC(=O)CCCC[C@@H]1SC[C@@H]2NC(=O)N[C@@H]21)[C@@H](C)O)C(=O)N[C@@H](CO)C(=O)N[C@@H](C)C(=O)N[C@@H](Cc1c[nH]c2ccccc12)C(=O)N[C@@H](CCCCN)C(=O)N1CCC[C@H]1C(=O)N[C@H](C(=O)N[C@@H](CCCNC(=N)N)C(=O)N[C@@H](CCCNC(=N)N)C(=O)N[C@@H](CCC(=O)O)C(=O)N[C@H](C(=O)N[C@@H](CCC(=O)O)C(=O)N[C@H](C(=O)O)C(C)C)[C@@H](C)O)[C@@H](C)O [HPV E6 #35 (modified)] (Biotin-GRWTGRAMSAWKPTRRETEV-OH; C-terminus assumed) | 1 (A450 nm 0-1) | 1 (A450 nm 0-1) | 1 (A450 nm 0-1) | 2 (A450 nm 1-2) |  |  |  |  |
| CC(C)C[C@H](NC(=O)[C@H](C)NC(=O)[C@@H](NC(=O)[C@@H](NC(=O)[C@H](Cc1c[nH]cn1)NC(=O)[C@H](CC(C)C)NC(=O)CNC(=O)[C@H](CCC(N)=O)NC(=O)CNC(=O)CNC(=O)[C@H](C)NC(=O)[C@H](C)NC(=O)[C@H](CCCNC(=N)N)NC(=O)[C@H](C)NC(=O)[C@H](CO)NC(=O)[C@H](CC(=O)O)NC(=O)[C@H](CC(=O)O)NC(=O)[C@H](Cc1c[nH]c2ccccc12)NC(=O)[C@H](C)NC(=O)CCCC[C@@H]1SC[C@@H]2NC(=O)N[C@@H]21)C(C)C)[C@@H](C)O)C(=O)O [LPAP] (Biotin-AWDDSARAAGGQGLHVTAL-OH; C-terminus assumed) | 1 (A450 nm 0-1) |  | 1 (A450 nm 0-1) |  |  |  |  |  |
